Laboratory results as given in patent US20090215884A1, “METHOD FOR WOUND HEALING” (priority 2005, published 2009).

System: PBMC
Assay: Cytokine production of stimulated PBMC (Bead Suspension Assay)
Type: cell-based, human
Settings: 24 h
Method: PEP005 was provided as a dry powder. A stock solution of 23.55 mM was prepared in DMSO and aliquots were stored at −20° C. An aliquot of the stock solution was thawed on the day of use and stored at room temperature prior to and during dosing. Intermediate dilution steps were carried out using DMEM cell culture medium.
For the isolation of PBMC freshly drawn human blood treated with Li-Heparin as an anti-coagulant was used. Cells were diluted with three volumes of CliniMACS PBS/EDTA Buffer (Miltenyi, Bergisch Gladbach), carefully layered over FicollPaque (Amersham Biosciences, Freiburg) in a conical tube and centrifuged at 400×g for 40 minutes at 20° C. in a swinging-bucket rotor without brake. The upper layer was aspirated, leaving the mononuclear cell layer undisturbed at the interphase. The interphase cells (lymphocytes, monocytes and thrombocytes) were carefully transferred into a new conical tube. The conical tube was filled with CliniMACS PBS/EDTA Buffer and centrifuged at 300×g for 10 minutes at 20° C. The supernatant was completely removed. For removal of platelets the cell pellet was resuspended in 50 ml of Buffer and centrifuged at 200×g for 10 minutes at 20° C. The supernatant was completely removed and the last washing step was repeated. Cells were resuspended in DMEMMedium (Invitrogen, Karlsruhe) and counted in a Neubauer-hemocytometer.
For the stimulation of PBMC 250.000 cells per well were seeded in a 96-well plate. PBMC of three different healthy donors were stimulated with PEP005 in three different concentrations (1, 10 and 100 nM) or LPS 1 μg/ml (Linaris, Wertheim-Bettingen), PMA 10 ng/ml (Sigma, Deisenhofen) and Ionomycin 1 μg/ml (Sigma, Deisenhofen), respectively. Cells were incubated at 37° C. and 5% CO^2 in a humidified atmosphere for 24 h.
In a typical Bead Suspension Assay a cytokine is captured from a supernatant with bead bound antibodies. The cytokine is quantified with a secondary antibody to complete a sandwich immunoassay. Cytokine concentrations are calculated with the help of a standard curve for each cytokine.
The cytokines IL-1β, IL-2, IL-6, IL-8 and TNF-α were quantitatively measured in the supernatant of the PBMC with a BioRad BioPlex System according to the manufacturer's intructions. All samples were measured in duplicates. All units of detected proteins are pg/ml.
To investigate the immunostimulating effects of PEP005, PBMCs from three different healthy donors were exposed for 24 h to PEP005 at concentrations of 1, 10 and 100 nM. The secretion of IL-1β, IL-2, IL-6, IL-8 and TNF-α into the supernatant was quantitatively measured by flow cytometry with the Bead Suspension Assays. The results are depicted in Tables 1.4-1.8.

[1] = PBMC donor three, PEP005 100 nM
[2] = PBMCs from the three donors, 1 nM PEP005

## C/C=C(/C)C(=O)O[C@H]1C(C)=C[C@]23C(=O)[C@@H](C=C(CO)[C@@H](O)[C@]12O)[C@H]1[C@@H](C[C@H]3C)C1(C)C [PEP005, ingenol-3-angelate]
  elevated IL-6 levels in PBMC supernatant (parenthetical, condition not stated): ~9 fold
PBMC donor one, PEP005 1 nM
  IL-1β production: 94.49 pg/mL
  IL-2 production: 82.68 pg/mL
  IL-6 production: 320.61 pg/mL
  IL-8 production: 13652.6 pg/mL
  TNF-α production: 148.42 pg/mL
PBMC donor one, PEP005 10 nM
  IL-1β production: 61.62 pg/mL
  IL-2 production: 60.3 pg/mL
  IL-6 production: 216.09 pg/mL
  IL-8 production: 9418.94 pg/mL
  TNF-α production: 76.14 pg/mL
PBMC donor one, PEP005 100 nM
  IL-1β production: 0 pg/mL
  IL-2 production: 10.56 pg/mL
  IL-6 production: 0 pg/mL
  IL-8 production: 52.77 pg/mL
  TNF-α production: 19.44 pg/mL
PBMC donor three, PEP005 1 nM
  IL-1β production: 314.73 pg/mL
  IL-2 production: 54.61 pg/mL
  IL-6 production: 131.46 pg/mL
  IL-8 production: 28029.68 pg/mL
  TNF-α production: 130.99 pg/mL
PBMC donor three, PEP005 10 nM
  IL-1β production: 173.33 pg/mL
  IL-2 production: 31.53 pg/mL
  IL-6 production: 61.66 pg/mL
  IL-8 production: 11438.34 pg/mL
  TNF-α production: 73.48 pg/mL
[1]
  IL-1β production: 10.92 pg/mL
  IL-2 production: 2 pg/mL
  IL-6 production: 0 pg/mL
  IL-8 production: 205.36 pg/mL
  TNF-α production: 12.93 pg/mL
PBMC donor two, PEP005 1 nM
  IL-1β production: 125.17 pg/mL
  IL-2 production: 17.86 pg/mL
  IL-6 production: 69.48 pg/mL
  IL-8 production: 12148.42 pg/mL
  TNF-α production: 90.72 pg/mL
PBMC donor two, PEP005 10 nM
  IL-1β production: 98.04 pg/mL
  IL-2 production: 19.47 pg/mL
  IL-6 production: 73.97 pg/mL
  IL-8 production: 18220.74 pg/mL
  TNF-α production: 71.6 pg/mL
PBMC donor two, PEP005 100 nM
  IL-1β production: 11.76 pg/mL
  IL-2 production: 12.84 pg/mL
  IL-6 production: 95.43 pg/mL
  IL-8 production: 217.52 pg/mL
  TNF-α production: 35.75 pg/mL
[2]
  increase of IL-2 levels in the supernatant: 20 to 80 fold
  mean increase of IL-2 levels in the supernatant: approximately 50 fold
PEP005 at 1 nM
  increase of IL-6 levels in PBMC supernatants: 4 to 6 fold
  increase of IL-8 levels in the supernatant of PBMCs: 3- to 5 fold
All three donors, PEP005 at 1 nM
  TNF-α levels in supernatants of PBMCs: approximately 120 nM
